The source made the active and inactive calls. The calls are words filed in the database; no cut-off is given here.
Assays:
Escherichia coli [1] = experiment: Potentiation of chloramphenicol-induced antibacterial activity against AcrB-deficient Escherichia coli BW25113 assessed as chloramphenicol MIC at 256 ug/ml after 18 hrs by checkerboard method (reference value: 2 ug/ml); assay type: functional; conditions: BW25113, 18 h
Escherichia coli [2] = experiment: Potentiation of chloramphenicol-induced antibacterial activity against AcrB-deficient Escherichia coli BW25113 assessed as chloramphenicol MIC at 512 ug/ml after 18 hrs by checkerboard method (reference value: 2 ug/ml); assay type: functional; conditions: BW25113, 18 h
Escherichia coli BW25113 [3] = experiment: Inhibition of AcrB in drug resistant Escherichia coli BW25113 assessed as reduction in nile red efflux at 100 uM pretreated for 15 mins followed by nile red addition measured after 3 hrs for 200 secs in presence of glucose by fluorimetric method
Escherichia coli [4] = experiment: Disruption of inner membrane potential in drug resistant Escherichia coli BW25113 at 512 ug/ml incubated for 10 mins measured for 60 secs by DiOC2(3) dye based fluorimetric method; assay type: functional
Escherichia coli [5] = experiment: Effect on rifampicin-induced antibacterial activity against wild-type drug resistant Escherichia coli BW25113 assessed as rifampicin MIC at 128 ug/ml after 18 hrs by checkerboard method (reference value: 16 ug/ml); assay type: functional; conditions: BW25113, 18 h
Escherichia coli [6] = experiment: Effect on rifampicin-induced antibacterial activity against wild-type drug resistant Escherichia coli BW25113 assessed as rifampicin MIC at 512 ug/ml after 18 hrs by checkerboard method (reference value: 16 ug/ml); assay type: functional; conditions: BW25113, 18 h
Escherichia coli [7] = experiment: Potentiation of erythromycin-induced antibacterial activity against AcrB-deficient Escherichia coli BW25113 assessed as erythromycin MIC at 256 ug/ml after 18 hrs by checkerboard method (reference value: 16 ug/ml); assay type: functional; conditions: BW25113, 18 h
Escherichia coli BW25113 [8] = experiment: Inhibition of AcrB in wild-type drug resistant Escherichia coli BW25113 assessed as reduction in nile red efflux at 50 uM pretreated for 15 mins followed by nile red addition measured after 3 hrs for 200 secs in presence of glucose by fluorimetric method
Escherichia coli [9] = experiment: Potentiation of chloramphenicol-induced antibacterial activity against AcrB-deficient Escherichia coli BW25113 assessed as chloramphenicol MIC at 128 ug/ml after 18 hrs by checkerboard method (reference value: 2 ug/ml); assay type: functional; conditions: BW25113, 18 h
Escherichia coli BW25113 [10] = experiment: Inhibition of AcrB in wild-type drug resistant Escherichia coli BW25113 assessed as potentiation of tetraphenyl phosphonium chloride-induced antibacterial activity by measuring FICI at 128 to 512 ug/ml after 18 hrs by checkerboard method
Escherichia coli BW25113 [11] = experiment: Inhibition of AcrB in wild-type drug resistant Escherichia coli BW25113 assessed as potentiation of chloramphenicol-induced antibacterial activity by measuring chloramphenicol MIC at 128 ug/ml after 18 hrs by checkerboard method (reference value: 8 ug/ml)
HEK293 = experiment: Cytotoxicity against HEK293 cells at 512 to 1024 ug/ml measured every 60 mins for 20 hrs by RealTime-Glo MT cell viability assay; assay type: cell-based; conditions: human, hek293, 20 h
HepG2 = experiment: Cytotoxicity against human HepG2 cells at 512 to 1024 ug/ml measured every 60 mins for 20 hrs by RealTime-Glo MT cell viability assay; assay type: cell-based; conditions: hepg2, 20 h
Escherichia coli BW25113 [12] = experiment: Inhibition of AcrB in wild-type drug resistant Escherichia coli BW25113 assessed as potentiation of chloramphenicol-induced antibacterial activity by measuring chloramphenicol MIC at 512 ug/ml after 18 hrs by checkerboard method (reference value: 8 ug/ml)
Escherichia coli BW25113 [13] = experiment: Inhibition of AcrB in wild-type drug resistant Escherichia coli BW25113 assessed as potentiation of chloramphenicol-induced antibacterial activity by measuring FICI at 128 to 512 ug/ml after 18 hrs by checkerboard method
Escherichia coli [14] = experiment: Potentiation of tetraphenyl phosphonium chloride-induced antibacterial activity against AcrB-deficient Escherichia coli BW25113 assessed as tetraphenyl phosphonium chloride MIC at 128 ug/ml after 18 hrs by checkerboard method (reference value: 64 ug/ml); assay type: functional; conditions: BW25113, 18 h
Escherichia coli [15] = experiment: Potentiation of erythromycin-induced antibacterial activity against AcrB-deficient Escherichia coli BW25113 assessed as erythromycin MIC at 128 ug/ml after 18 hrs by checkerboard method (reference value: 16 ug/ml); assay type: functional; conditions: BW25113, 18 h
Escherichia coli BW25113 [16] = experiment: Inhibition of AcrB in wild-type drug resistant Escherichia coli BW25113 assessed as potentiation of tetraphenyl phosphonium chloride-induced antibacterial activity by measuring tetraphenyl phosphonium chloride MIC at 128 ug/ml after 18 hrs by checkerboard method (reference value: 1024 ug/ml)
Escherichia coli BW25113 [17] = experiment: Inhibition of […] in drug resistant Escherichia coli BW25113 assessed as increase in outer membrane permeability by measuring increase nitrocefin hydrolysis at 512 ug/ml measured over 30 mins in presence of CCCP by spectrophotometric method
Escherichia coli [18] = experiment: Potentiation of erythromycin-induced antibacterial activity against AcrB-deficient Escherichia coli BW25113 assessed as erythromycin MIC at 512 ug/ml after 18 hrs by checkerboard method (reference value: 16 ug/ml); assay type: functional; conditions: BW25113, 18 h
Escherichia coli [19] = experiment: Potentiation of tetraphenyl phosphonium chloride-induced antibacterial activity against AcrB-deficient Escherichia coli BW25113 assessed as tetraphenyl phosphonium chloride MIC at 512 ug/ml after 18 hrs by checkerboard method (reference value: 64 ug/ml); assay type: functional; conditions: BW25113, 18 h
Escherichia coli [20] = experiment: Growth inhibition of wild-type drug-resistant Escherichia coli BW25113 after 18 hrs by resazurin dye based broth microdilution method
Escherichia coli [21] = experiment: Effect on rifampicin-induced antibacterial activity against wild-type drug resistant Escherichia coli BW25113 assessed as rifampicin MIC at 256 ug/ml after 18 hrs by checkerboard method (reference value: 16 ug/ml); assay type: functional; conditions: BW25113, 18 h
Escherichia coli [22] = experiment: Effect on rifampicin-induced antibacterial activity against AcrB-deficient Escherichia coli BW25113 assessed as rifampicin MIC at 512 ug/ml after 18 hrs by checkerboard method (reference value: 16 ug/ml); assay type: functional; conditions: BW25113, 18 h
Escherichia coli BW25113 [23] = experiment: Inhibition of AcrB in wild-type drug resistant Escherichia coli BW25113 assessed as potentiation of erythromycin-induced antibacterial activity by measuring FICI at 128 to 512 ug/ml after 18 hrs by checkerboard method
Escherichia coli BW25113 [24] = experiment: Inhibition of AcrB in wild-type drug resistant Escherichia coli BW25113 assessed as potentiation of erythromycin-induced antibacterial activity by measuring erythromycin MIC at 256 ug/ml after 18 hrs by checkerboard method (reference value: 128 ug/ml)
Escherichia coli BW25113 [25] = experiment: Inhibition of AcrB in wild-type drug resistant Escherichia coli BW25113 assessed as potentiation of tetraphenyl phosphonium chloride-induced antibacterial activity by measuring tetraphenyl phosphonium chloride MIC at 512 ug/ml after 18 hrs by checkerboard method (reference value: 1024 ug/ml)
Escherichia coli BW25113 [26] = experiment: Inhibition of AcrB in wild-type drug resistant Escherichia coli BW25113 assessed as potentiation of erythromycin-induced antibacterial activity by measuring erythromycin MIC at 128 ug/ml after 18 hrs by checkerboard method (reference value: 128 ug/ml)
Escherichia coli BW25113 [27] = experiment: Inhibition of AcrB in wild-type drug resistant Escherichia coli BW25113 assessed as potentiation of erythromycin-induced antibacterial activity by measuring erythromycin MIC at 512 ug/ml after 18 hrs by checkerboard method (reference value: 128 ug/ml)
Escherichia coli [28] = experiment: Potentiation of tetraphenyl phosphonium chloride-induced antibacterial activity against AcrB-deficient Escherichia coli BW25113 assessed as tetraphenyl phosphonium chloride MIC at 256 ug/ml after 18 hrs by checkerboard method (reference value: 64 ug/ml); assay type: functional; conditions: BW25113, 18 h
Escherichia coli BW25113 [29] = experiment: Inhibition of AcrB in wild-type drug resistant Escherichia coli BW25113 assessed as potentiation of tetraphenyl phosphonium chloride-induced antibacterial activity by measuring tetraphenyl phosphonium chloride MIC at 256 ug/ml after 18 hrs by checkerboard method (reference value: 1024 ug/ml)
Escherichia coli [30] = experiment: Effect on rifampicin-induced antibacterial activity against AcrB-deficient Escherichia coli BW25113 assessed as rifampicin MIC at 128 ug/ml after 18 hrs by checkerboard method (reference value: 16 ug/ml); assay type: functional; conditions: BW25113, 18 h
Escherichia coli [31] = experiment: Effect on rifampicin-induced antibacterial activity against AcrB-deficient Escherichia coli BW25113 assessed as rifampicin MIC at 256 ug/ml after 18 hrs by checkerboard method (reference value: 16 ug/ml); assay type: functional; conditions: BW25113, 18 h
Escherichia coli [32] = experiment: Growth inhibition of drug-sensitive AcrB-deficient Escherichia coli BW25113 at 1024 ug/ml after 18 hrs by resazurin dye based broth microdilution method
Escherichia coli BW25113 [33] = experiment: Inhibition of AcrB in wild-type drug resistant Escherichia coli BW25113 assessed as potentiation of chloramphenicol-induced antibacterial activity by measuring chloramphenicol MIC at 256 ug/ml after 18 hrs by checkerboard method (reference value: 8 ug/ml)

CC(C)CCOc1cc(C(N)=O)cc2ccccc12
MIC (Escherichia coli [1]): 2 µg/mL | MIC (Escherichia coli [2]): 2 µg/mL | inhibition (Escherichia coli BW25113 [3]): Active | Activity (Escherichia coli [4]): inactive | MIC (Escherichia coli [5]): 16 µg/mL | MIC (Escherichia coli [6]): 16 µg/mL | MIC (Escherichia coli [7]): 16 µg/mL | inhibition (Escherichia coli BW25113 [8]): Active | MIC (Escherichia coli [9]): 2 µg/mL | fractional inhibitory concentration index (FICI) (Escherichia coli BW25113 [10]): 0.25 | MIC (Escherichia coli BW25113 [11]): 8 µg/mL | Activity (HEK293): Non-Toxic | Activity (HepG2): Non-Toxic | MIC (Escherichia coli BW25113 [12]): 2 µg/mL | fractional inhibitory concentration index (FICI) (Escherichia coli BW25113 [13]): 0.25 | MIC (Escherichia coli [14]): 64 µg/mL | MIC (Escherichia coli [15]): 16 µg/mL | MIC (Escherichia coli BW25113 [16]): 1020 µg/mL | inhibition (Escherichia coli BW25113 [17]): inactive | MIC (Escherichia coli [18]): 16 µg/mL | MIC (Escherichia coli [19]): 64 µg/mL | growth inhibition (GI) (Escherichia coli [20]): Non-Toxic | MIC (Escherichia coli [21]): 16 µg/mL | MIC (Escherichia coli [22]): 16 µg/mL | fractional inhibitory concentration index (FICI) (Escherichia coli BW25113 [23]): 0.25 | MIC (Escherichia coli BW25113 [24]): 64 µg/mL | MIC (Escherichia coli BW25113 [25]): 128 µg/mL | MIC (Escherichia coli BW25113 [26]): 128 µg/mL | MIC (Escherichia coli BW25113 [27]): 16 µg/mL | MIC (Escherichia coli [28]): 64 µg/mL | MIC (Escherichia coli BW25113 [29]): 512 µg/mL | MIC (Escherichia coli [30]): 16 µg/mL | MIC (Escherichia coli [31]): 16 µg/mL | growth inhibition (GI) (Escherichia coli [32]): Toxic | MIC (Escherichia coli BW25113 [33]): 4 µg/mL

Reference: ChEMBL document CHEMBL3997804, “Evaluation of a series of 2-napthamide derivatives as inhibitors of the drug efflux pump AcrB for the reversal of antimicrobial resistance” (Bioorg Med Chem Lett, 2017)
